For test [1], the system named is colon adenocarcinoma (HT-29) cells. The experiment in a line: MTT cytotoxicity assay, HT-29. In kind it is cell-based, human. As to conditions: Homo sapiens, HT-29, cancer cell, 48 h, means of three independent experiments. The source says: (§1) The cells studied were obtained from the American Type Culture Collection (ATCC, Manassas, VA), and included human colorectal adenocarcinoma (DLD-1), cervix carcinoma (HeLa), breast adenocarcinoma (MDA-MB-231), colon adenocarcinoma (HT-29), endometrial adenocarcinoma (ECC-1), prostate cancer (DU-145 and PC-3), normal embryonic kidney (HEK-293), normal prostate epithelium (PNT-1A), and normal retinal pigment epithelium (ARPE-19) cells. As recommended by ATCC, cells were subjected to propagation using DMEM-F12 and RPMI-1640 media, with supplements 10% fetal bovine serum, L-glutamine (2 mM), penicillin (100 U/mL) and streptomycin ([…]) in a humidified atmosphere (5% CO2) at 37 °C. When the cultures reached 70–80% confluence, the cells were harvested using 0.25% trypsin (Sigma).
(§2) Cytotoxic activities were based on the reduction of (3–(4,5-dimethylthiazol-2-yl)-2,5-diphenyltetrazolium bromide) (MTT) by mitochondrial dehydrogenase of viable cells to give a blue formazan product which can be measured spectrophotometrically by UV–Vis measurements. MTT colorimetric assays were performed using 96 well plates. The cells were seeded in a 96 well plate at concentration 5.0 × 10^4 cells/well and incubated at 37 °C for 24 h. After treatment with various concentrations of the test compound (1, 5, 10, 25, 50, 100 and 200 μM), the cells were incubated for an additional 48 h at 37 °C. After incubation, the medium was removed, and the cells in each well were incubated with 100 μL MTT solution (5 mg/mL) for 4 h at 37 °C. MTT solutions were then discarded, and 100 μL DMSO were added to dissolve insoluble formazan crystals. Optical densities were measured at 570 nm (Varioskan Flash Multimode Reader, Thermo, Waltham, MA). Data were obtained from triplicate wells. Cytotoxic effects were determined in reference to negative controls (vehicle treated cells). Cytotoxicity was expressed as the mean percentage increase relative to the unexposed control (mean ± SD). All statistical analyses were performed using SPSS package program for Windows (Version 20, Chicago, IL). Control values were set to 0% cytotoxicity. Cytotoxicity data, where appropriate, were fitted to sigmoidal curves and a four-parameter logistic model was used to calculate the IC50 values, the concentration of material causing 50% inhibition, compared to the untreated controls. 5-Fluorouracil (5-FU) was also used as a control agent[21]^,[22].
For orientation: Formazan colour is commonly taken as a measure of viable cells.

For test [2], the system named is normal prostate epithelium (PNT-1A) cells. The experiment in a line: MTT cytotoxicity assay, PNT-1A. In kind it is cell-based, human. As to conditions: Homo sapiens, PNT1A, 48 h.
Text: as §1, §2

In test [3] the test system is normal embryonic kidney (HEK-293) cells. The experiment in a line: MTT cytotoxicity assay, HEK-293. Format: cell-based, human. The following applies: Homo sapiens, HEK293, normal cell, 48 h, means of three independent experiments.
Text: as §1, §2

The subject of test [4] is normal retinal pigment epithelium (ARPE-19) cells. The experiment in a line: MTT cytotoxicity assay, ARPE-19. In kind it is cell-based, human. As to conditions: Homo sapiens, ARPE-19, normal cell, 48 h, means of three independent experiments.
Text: as §1, §2

The test system of test [5] is cervix carcinoma (HeLa) cells. The test is described as follows: MTT cytotoxicity assay, HeLa. In kind it is cell-based, human. As to conditions: 48 h, cancer cell, MTT, means of three independent experiments.
Text: as §1, §2

The test system of test [6] is prostate cancer (DU-145) cells. The experiment in a line: MTT cytotoxicity assay, DU-145. Format: cell-based, human. As to conditions: for IC50: Homo sapiens, DU-145, MTT, 48 h.
Text: as §1, §2

In test [7] the test system is breast adenocarcinoma (MDA-MB-231) cells. The experiment in a line: MTT cytotoxicity assay, MDA-MB-231. Format: cell-based, human. As to conditions: Homo sapiens, MDA-MB-231, cancer cell, 48 h, means of three independent experiments.
Text: as §1, §2

The test system of test [8] is prostate cancer (PC-3) cells. The test is described as follows: MTT cytotoxicity assay, PC-3. In kind it is cell-based, human. The following applies: Homo sapiens, PC-3, cancer cell, 48 h, means of three independent experiments.
Text: as §1, §2

In test [9] the test system is human colorectal adenocarcinoma (DLD-1) cells. The test is described as follows: MTT cytotoxicity assay, DLD-1. Format: cell-based. As to conditions: Homo sapiens, DLD-1, cancer cell, 48 h, means of three independent experiments.
Text: as §1, §2

The test system of test [10] is endometrial adenocarcinoma (ECC-1) cells. The test is described as follows: MTT cytotoxicity assay, ECC-1. In kind it is cell-based, human. The following applies: Homo sapiens, ECC-1, cancer cell, 48 h, means of three independent experiments.
Text: as §1, §2

The mark [11] stands for this setting: normal cell, means of three independent experiments, read-out: IC50 PNT-1A.
[12] abbreviates: cancer cell, means of three independent experiments, read-out: IC50 DU-145.

SMILES strings stand for the structures. Like-named read-outs stand apart in the source and are kept apart here.

As usually defined, the IC50 is the point on the concentration scale where inhibition reaches its midpoint.

`O=c1[nH]cc(F)c(=O)[nH]1` [Compound 5-FU, 5-Fluorouracil, reference compound]: the IC50 came out at 24.2 ± 2.4 µM in test [1]; 142 ± 18.6 µM in test [2] (setting [11]); 65.3 ± 8.6 µM in test [3]; 75.3 ± 7.5 µM in test [4]; 19.2 µM in test [5] (Homo sapiens, HeLa); 19.2 ± 1.2 µM in test [5]. In addition, the half-maximal inhibitory concentration (IC50) was found to be 37.3 ± 5.8 µM in test [6] (setting [12]); 22.4 ± 2.5 µM in test [7]; 45.5 ± 4.5 µM in test [8]; 50.2 ± 21 µM in test [9]; 30.6 ± 3.5 µM in [10].
With `NS(=O)(=O)c1cccc(N/N=N/c2ccc(F)cc2)c1` [Compound L1, 3–(3-(4-fluorophenyl)triaz-1-en-1-yl) benzenesulfonamide], the 50% inhibitory concentration (IC50) in [1] stood at 79.4 ± 15.4 µM; in [2] (unit given as M, read-out: IC50 normal prostate cells (PNT1-A)), 195 µM; in test [2] (setting [11]), 195 ± 23.5 µM; in [3] it was 132 ± 16.4 µM; in test [4], 279 ± 33.8 µM; in test [5] (Homo sapiens, HeLa) it was 179 ± 16 µM. Further, the IC50 in [6] (unit given as M, read-out: IC50 prostate cancer (DU-145)) was determined as 29 µM; in test [6] (setting [12]), 29 ± 2.9 µM; in test [7] it was 104 ± 28.2 µM; in test [8] it was 168 ± 18.5 µM; in [9], 140 ± 11 µM; in test [10], 239 ± 27.5 µM. In addition, the “selectivity between prostate cancer cell line (DU-145) and normal prostate cells (PNT1-A)” value in test [6] (from IC50 values DU-145 vs PNT1-A) is “high selectivity”.

The record behind these values is paper PMC6211257, “Synthesis and cytotoxic activities of novel copper and silver complexes of 1,3-diaryltriazene-substituted sulfonamides” (Journal of Enzyme Inhibition and Medicinal Chemistry, 2018).
